Earlier results on 1 compound are cited in patent US9211338B2, “Composition and method for treating HPV” (Universite Libre de Bruxelles, priority 2011, dated 2015).

Where two headings read alike, the source gives them in different places.

For one data set, the system named is HPV-positive cells. To be noted: in vitro.

For `Nc1ccn(C[C@@H](CO)OCP(=O)(O)O)c(=O)n1` [cidofovir], the clinical outcome is “stabilization of disseminated papillomatosis” in the data set with HPV (intravenous (systemic), disseminated papillomatosis) and “complete regression of the tumor” with HPV (local intratumor injections, patients with papillomatous lesions). For the same compound, the “inhibition of cell proliferation” value in the data set on HPV-positive cells was “concentration- and time-dependent inhibition of cell proliferation”.
